According to patent US12521393B2, “Cytotoxicity targeting chimeras for CCR2-expressing cells” (GLAXOSMITHKLINE INTELLECTUAL PROPERTY DEVELOPMENT LIMITED, priority 2021, dated 2026):
Structures can show the parent of a compound that is named as a salt.

Experiments:
[1] = target: human alpha1 nicotinic acetylcholine (nACh) receptor (Homo sapiens, UniProt P02708); experiment: Nicotinic acetylcholine receptor antagonism assay, IONFlux automated patch clamp (Example 203); format: cell-based
Description: Cells expressing human alpha1 nicotinic acetylcholine (nACh) receptor (nAChR) were washed and dissociated using Trypsin containing buffer. Cells were then washed and seeded at a density of 3-5 million cells/mL and allowed to grow for 3 days. Then, 60-80 μL of cells were added to plates and incubated with dose response of an ARM compound of Formula (I) with a top concentration of either 10 μM or 100 μM. The receptor was then stimulated via addition of acetylcholine (ACh) and activation of the receptor was monitored via the IONFlux automated patch clamp system. IonFlux Data Analyzer software was utilized to perform leak subtraction and measure (min) peak current amplitude.
Data processing: (1) Current values recorded for vehicle only applications in individual traps/patterns were subtracted from corresponding current amplitude values for control, test article and control+test article. (2) Control response was calculated as % of the average response of the 3rd out of total 3 ACh (10 mM) applications alone. In rare situations, if the 3rd ACh response was obscured due to technical artifacts, the 2nd and/or 1st ACh (10 mM) application was considered as control. The peak current amplitude generated in the presence of each test article concentration was then used to calculate the % inhibition as compared to control response (10 mM ACh alone). These estimates were further corrected for vehicle response and run down corrected by normalizing with time matched control responses (10 mM ACh alone). The corrected percentages were then fit with a non-linear function in GraphPad Prism 6 (or later versions) to determine the IC50.
Exclusion criteria: (i) any n's with poor recording quality, (ii) control current amplitude <500 pA or (iii) significant outliers, as determined by the Grubbs test.
ARMs compounds of Formula (I) of the invention were tested for antagonism of the nAChR in the above assay in […] experimental runs and the results are shown in Table 7 below. Antagonistic activity of the compounds of Formula (I) of the invention is reported as an IC50 value (half maximal inhibitory concentration) and the maximum percentage antagonism observed at the highest concentration of compound of Formula (I) tested, as indicated in Table 7. For compounds tested in more than one experimental run, the IC50 value is reported as an average

[2] = tested on: endogenous target monocytes in human PBMC; experiment: PBMC ex vivo monocyte depletion flow cytometry assay (Example 200); format: cell-based; details: with anti-cotinine antibody (SEQ ID NO: 11/12), 18-24 hours, EC50 in molar, read-out: Ex Vivo Depletion Assay pEC50 (converted)
How it was run: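 Monocyte depletion is reported as pEC50, averaged or given individually across runs, and read by flow cytometry staining CD45, CD14 and CD4 with a viability dye. Compounds, diluted four-fold over 11 points from 1 mM DMSO stocks, were combined with 30 μg/mL Fc-enhanced anti-cotinine antibody and human PBMC, then incubated 18-24 h at 37° C.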

Chain of human alpha1 nicotinic acetylcholine (nACh) receptor (P02708 21-457): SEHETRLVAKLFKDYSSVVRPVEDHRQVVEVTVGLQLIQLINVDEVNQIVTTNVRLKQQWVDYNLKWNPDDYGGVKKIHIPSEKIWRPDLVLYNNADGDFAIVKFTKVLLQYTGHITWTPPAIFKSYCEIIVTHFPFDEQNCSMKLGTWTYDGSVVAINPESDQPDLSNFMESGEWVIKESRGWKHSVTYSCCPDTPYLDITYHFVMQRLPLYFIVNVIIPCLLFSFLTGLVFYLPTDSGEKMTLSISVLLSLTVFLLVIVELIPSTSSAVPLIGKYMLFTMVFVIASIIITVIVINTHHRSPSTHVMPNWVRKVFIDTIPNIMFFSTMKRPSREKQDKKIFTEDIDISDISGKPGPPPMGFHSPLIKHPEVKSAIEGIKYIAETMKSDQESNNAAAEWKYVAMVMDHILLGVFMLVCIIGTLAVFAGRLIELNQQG
Chain of human alpha1 nicotinic acetylcholine (nACh) receptor (P11230 24-501 partner): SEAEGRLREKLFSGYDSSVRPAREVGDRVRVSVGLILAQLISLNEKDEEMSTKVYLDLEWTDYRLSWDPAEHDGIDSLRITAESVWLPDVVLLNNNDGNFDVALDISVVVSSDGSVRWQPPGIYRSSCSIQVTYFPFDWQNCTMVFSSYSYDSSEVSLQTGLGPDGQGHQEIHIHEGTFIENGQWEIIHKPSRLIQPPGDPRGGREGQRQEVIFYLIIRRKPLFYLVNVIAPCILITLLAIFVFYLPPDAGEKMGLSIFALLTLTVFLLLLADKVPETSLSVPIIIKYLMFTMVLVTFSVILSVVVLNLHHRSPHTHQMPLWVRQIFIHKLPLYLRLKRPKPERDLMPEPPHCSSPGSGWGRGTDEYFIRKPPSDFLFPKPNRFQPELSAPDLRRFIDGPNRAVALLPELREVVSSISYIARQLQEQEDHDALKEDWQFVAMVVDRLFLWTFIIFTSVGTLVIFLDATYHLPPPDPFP
Chain of human alpha1 nicotinic acetylcholine (nACh) receptor (Q07001 22-517 partner): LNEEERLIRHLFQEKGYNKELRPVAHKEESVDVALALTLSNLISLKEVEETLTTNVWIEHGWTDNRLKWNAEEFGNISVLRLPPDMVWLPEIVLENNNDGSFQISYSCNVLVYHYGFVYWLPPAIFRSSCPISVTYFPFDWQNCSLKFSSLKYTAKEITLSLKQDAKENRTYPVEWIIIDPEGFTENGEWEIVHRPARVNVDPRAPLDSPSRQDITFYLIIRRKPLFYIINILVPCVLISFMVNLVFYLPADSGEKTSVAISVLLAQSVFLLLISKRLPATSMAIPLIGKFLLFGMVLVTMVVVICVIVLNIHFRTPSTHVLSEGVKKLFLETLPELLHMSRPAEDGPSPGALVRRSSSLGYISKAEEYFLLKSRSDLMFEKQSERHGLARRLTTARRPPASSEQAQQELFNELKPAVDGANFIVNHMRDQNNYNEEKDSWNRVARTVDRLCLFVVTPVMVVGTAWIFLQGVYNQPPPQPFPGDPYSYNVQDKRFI

## CC(C)N(C)[C@@H]1CC[C@H](N2CC[C@H](Nc3ncnc4ccc(C(F)(F)F)cc34)C2=O)[C@H](NC(=O)[C@H]2C[C@@H](NC(=O)CCCO[C@H]3CC[C@H](OCCNC(=O)[C@H]4CC(=O)N(C)[C@@H]4c4cccnc4)CC3)C2)C1 [Example 9, (2S,3S)-N-(2-(((1S,4S)-4-(4-(((1S,3S)-3-(((1R,2S,5R)-5-(Isopropyl(methyl)amino)-2-((S)-2-oxo-3-((6-(trifluoromethyl)quinazolin-4-yl)amino)pyrrolidin-1-yl)cyclohexyl)carbamoyl)cyclobutyl)amino)-4-oxobutoxy)cyclohexyl)oxy)ethyl)-1-methyl-5-oxo-2-(pyridin-3-yl)pyrrolidine-3-carboxamide]
[1]; antagonism of ACh-stimulated human alpha1 nAChR current, patch clamp
  IC50: 82000 nM
[1]; maximum percentage antagonism at maximum concentration tested 100 μM, read-out: Maximum Response
  Emax at 100 µM: 53.9%

## CC(C)N(C)[C@@H]1CC[C@H](N2CC[C@H](Nc3ncnc4ccc(C(F)(F)F)cc34)C2=O)[C@H](NC(=O)CCOCCC(=O)N2CCC3(CCC(C(=O)NCCNC(=O)[C@H]4CC(=O)N(C)[C@@H]4c4cccnc4)CC3)CC2)C1 [Example 167, 3-(3-(3-(((1R,2S,5R)-5-(Isopropyl(methyl)amino)-2-((S)-2-oxo-3-((6-(trifluoromethyl)quinazolin-4-yl)amino)pyrrolidin-1-yl)cyclohexyl)amino)-3-oxopropoxy)propanoyl)-N-(2-((2S,3S)-1-methyl-5-oxo-2-(pyridin-3-yl)pyrrolidine-3-carboxamido)ethyl)-3-azaspiro[5.5]undecane-9-carboxamide]
[2]
  EC50: 1.58 nM

## CC(C)N(C)[C@@H]1CC[C@H](N2CC[C@H](Nc3ncnc4ccc(C(F)(F)F)cc34)C2=O)[C@H](NC(=O)[C@H]2CC[C@@H](NC(=O)CCOCCOCCNC(=O)CCCNC(=O)[C@H]3CC(=O)N(C)[C@@H]3c3cccnc3)CC2)C1 [Example 176, (2S,3S)-N-(4-((2-(2-(3-(((1S,4s)-4-(((1R,2S,5R)-5-(Isopropyl(methyl)amino)-2-((S)-2-oxo-3-((6-(trifluoromethyl)quinazolin-4-yl)amino)pyrrolidin-1-yl)cyclohexyl)carbamoyl)cyclohexyl)amino)-3-oxopropoxy)ethoxy)ethyl)amino)-4-oxobutyl)-1-methyl-5-oxo-2-(pyridin-3-yl)pyrrolidine-3-carboxamide]
[2]
  EC50: 0.316 nM

## CC(C)N(CCOCCOCCC(=O)N[C@H]1CC[C@@H](C(=O)N[C@@H]2C[C@H](N(C)C(C)C)CC[C@@H]2N2CC[C@H](Nc3ncnc4ccc(C(F)(F)F)cc34)C2=O)CC1)C(=O)CCCNC(=O)[C@H]1CC(=O)N(C)[C@@H]1c1cccnc1 [Example 177, (2S,3S)-N-(4-(Isopropyl(2-(2-(3-(((1S,4s)-4-(((1R,2S,5R)-5-(isopropyl(methyl)amino)-2-((S)-2-oxo-3-((6-(trifluoromethyl)quinazolin-4-yl)amino)pyrrolidin-1-yl)cyclohexyl)carbamoyl)cyclohexyl)amino)-3-oxopropoxy)ethoxy)ethyl)amino)-4-oxobutyl)-1-methyl-5-oxo-2-(pyridin-3-yl)pyrrolidine-3-carboxamide]
[2]
  EC50: 0.251 nM

## CC(C)N(C)[C@@H]1CC[C@H](N2CC[C@H](Nc3ncnc4ccc(C(F)(F)F)cc34)C2=O)[C@H](NC(=O)CCCN2CCC3(CCC(C(=O)NCCNC(=O)[C@H]4CC(=O)N(C)[C@@H]4c4cccnc4)CC3)CC2)C1 [Example 183, 3-(4-(((1R,2S,5R)-5-(Isopropyl(methyl)amino)-2-((S)-2-oxo-3-((6-(trifluoromethyl)quinazolin-4-yl)amino)pyrrolidin-1-yl)cyclohexyl)amino)-4-oxobutyl)-N-(2-((2S,3S)-1-methyl-5-oxo-2-(pyridin-3-yl)pyrrolidine-3-carboxamido)ethyl)-3-azaspiro[5.5]undecane-9-carboxamide, 3 Formic acid salt]
[2]
  EC50: 0.251 nM

## CC(C)N(C)[C@@H]1CC[C@H](N2CC[C@H](Nc3ncnc4ccc(C(F)(F)F)cc34)C2=O)[C@H](NC(=O)C2CCN(C3CCN(C4CCN(CCCCNC(=O)[C@H]5CC(=O)N(C)[C@@H]5c5cccnc5)CC4)CC3)CC2)C1 [Example 185, N-((1R,2S,5R)-5-(isopropyl(methyl)amino)-2-((S)-2-oxo-3-((6-(trifluoromethyl)quinazolin-4-yl)amino)pyrrolidin-1-yl)cyclohexyl)-1″-(4-((2S,3S)-1-methyl-5-oxo-2-(pyridin-3-yl)pyrrolidine-3-carboxamido)butyl)-[1,4′:1′,4″-terpiperidine]-4-carboxamide]
[2]
  EC50: 0.0631 nM

## CC(C)N(C)[C@@H]1CC[C@H](N2CC[C@H](Nc3ncnc4ccc(C(F)(F)F)cc34)C2=O)[C@H](NC(=O)[C@H]2CC[C@H](C3CCN(CCOCCOCCNC(=O)[C@H]4CC(=O)N(C)[C@@H]4c4cccnc4)CC3)CC2)C1 [Example 189, (2S,3S)-N-(2-(2-(2-(4-((1R,4r)-4-(((1R,2S,5R)-5-(Isopropyl(methyl)amino)-2-((S)-2-oxo-3-((6-(trifluoromethyl)quinazolin-4-yl)amino)pyrrolidin-1-yl)cyclohexyl)carbamoyl)cyclohexyl)piperidin-1-yl)ethoxy)ethoxy)ethyl)-1-methyl-5-oxo-2-(pyridin-3-yl)pyrrolidine-3-carboxamide]
[2]
  EC50: 7.94 nM

## CC(C)N(C)[C@@H]1CC[C@H](N2CC[C@H](Nc3ncnc4ccc(C(F)(F)F)cc34)C2=O)[C@H](NC(=O)[C@H]2CC[C@H](N3CCN(CCOCCOCCNC(=O)[C@H]4CC(=O)N(C)[C@@H]4c4cccnc4)CC3)CC2)C1 [Example 190, (2S,3S)-N-(2-(2-(2-(4-((1R,4r)-4-(((1R,2S,5R)-5-(isopropyl(methyl)amino)-2-((S)-2-oxo-3-((6-(trifluoromethyl)quinazolin-4-yl)amino)pyrrolidin-1-yl)cyclohexyl)carbamoyl)cyclohexyl)piperazin-1-yl)ethoxy)ethoxy)ethyl)-1-methyl-5-oxo-2-(pyridin-3-yl)pyrrolidine-3-carboxamide]
[2]
  EC50: 3.16 nM

## CC(C)N(C)[C@@H]1CC[C@H](N2CC[C@H](Nc3ncnc4ccc(C(F)(F)F)cc34)C2=O)[C@H](NC(=O)[C@H]2CC[C@@H](NC(=O)CCCOCCCOCCCNC(=O)[C@H]3CC(=O)N(C)[C@@H]3c3cccnc3)CC2)C1 [Example 193, (2S,3S)-N-(3-(3-(4-(((1S,4s)-4-(((1R,2S,5R)-5-(Isopropyl(methyl)amino)-2-((S)-2-oxo-3-((6-(trifluoromethyl)quinazolin-4-yl)amino)pyrrolidin-1-yl)cyclohexyl)carbamoyl)cyclohexyl)amino)-4-oxobutoxy)propoxy)propyl)-1-methyl-5-oxo-2-(pyridin-3-yl)pyrrolidine-3-carboxamide]
[2]
  EC50: 0.2 nM

## CC(C)N(C)[C@@H]1CC[C@H](N2CC[C@H](Nc3ncnc4ccc(C(F)(F)F)cc34)C2=O)[C@H](NC(=O)CCCCCCCCNCCOCCOCCOCCOCCNC(=O)[C@H]2CC(=O)N(C)[C@@H]2c2cccnc2)C1 [Example 195, (2S,3S)-N-(24-(((1R,2S,5R)-5-(Isopropyl(methyl)amino)-2-((S)-2-oxo-3-((6-(trifluoromethyl)quinazolin-4-yl)amino)pyrrolidin-1-yl)cyclohexyl)amino)-24-oxo-3,6,9,12-tetraoxa-15-azatetracosyl)-1-methyl-5-oxo-2-(pyridin-3-yl)pyrrolidine-3-carboxamide, 3Trifluoroacetic acid salt]
[2]
  EC50: 0.316 nM

## CC(C)N(C)[C@@H]1CC[C@H](N2CC[C@H](Nc3ncnc4ccc(C(F)(F)F)cc34)C2=O)[C@H](NC(=O)CCCCCCCCNCCCCCCCCCCNC(=O)[C@H]2CC(=O)N(C)[C@@H]2c2cccnc2)C1 [Example 196, (2S,3S)-N-(10-((9-(((1R,2S,5R)-5-(Isopropyl(methyl)amino)-2-((S)-2-oxo-3-((6-(trifluoromethyl)quinazolin-4-yl)amino)pyrrolidin-1-yl)cyclohexyl)amino)-9-oxononyl)amino)decyl)-1-methyl-5-oxo-2-(pyridin-3-yl)pyrrolidine-3-carboxamide, 3Formic acid salt.]
[2]
  EC50: 0.2 nM

## CC(C)N(C)[C@@H]1CC[C@H](N2CC[C@H](Nc3ncnc4ccc(C(F)(F)F)cc34)C2=O)[C@H](NC(=O)[C@H]2CC[C@@H](NC(=O)CCOCCCOCCCNC(=O)[C@H]3CC(=O)N(C)[C@@H]3c3cccnc3)CC2)C1 [Example 197, (2S,3S)-N-(3-(3-(3-(((1S,4s)-4-(((1R,2S,5R)-5-(Isopropyl(methyl)amino)-2-((S)-2-oxo-3-((6-(trifluoromethyl)quinazolin-4-yl)amino)pyrrolidin-1-yl)cyclohexyl)carbamoyl)cyclohexyl)amino)-3-oxopropoxy)propoxy)propyl)-1-methyl-5-oxo-2-(pyridin-3-yl)pyrrolidine-3-carboxamide]
[2]
  EC50: 1 nM
